{"source": "ChEMBL document CHEMBL1142021", "about": "“Aglycon specificity profiling of alpha-glucosidases using synthetic probes” (Bioorg Med Chem Lett, 2005)", "key": {"[1]": {"molecular_target": "T1, Alpha-glucosidase (Apis mellifera) (UniProt Q17058)", "T1 sequence (whole entry)": "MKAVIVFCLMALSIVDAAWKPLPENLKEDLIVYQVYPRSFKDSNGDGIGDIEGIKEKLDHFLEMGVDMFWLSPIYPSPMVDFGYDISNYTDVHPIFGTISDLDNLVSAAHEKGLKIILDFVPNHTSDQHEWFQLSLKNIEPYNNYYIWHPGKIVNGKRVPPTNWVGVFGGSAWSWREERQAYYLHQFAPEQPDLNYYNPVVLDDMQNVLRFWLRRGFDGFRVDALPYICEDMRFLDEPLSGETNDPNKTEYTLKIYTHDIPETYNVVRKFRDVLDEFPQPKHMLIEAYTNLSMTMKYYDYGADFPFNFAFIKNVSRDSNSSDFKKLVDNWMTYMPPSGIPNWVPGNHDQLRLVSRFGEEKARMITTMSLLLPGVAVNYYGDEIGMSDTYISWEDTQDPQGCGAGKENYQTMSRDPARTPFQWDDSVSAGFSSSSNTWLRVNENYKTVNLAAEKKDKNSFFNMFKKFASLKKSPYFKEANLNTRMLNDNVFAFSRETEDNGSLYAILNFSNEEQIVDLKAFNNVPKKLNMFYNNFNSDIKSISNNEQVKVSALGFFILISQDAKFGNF", "test": "Inhibition of family 13 alpha-glucosidase isoform II from honey bee at 1 umol/mL"}, "[2]": {"molecular_target": "Alpha-glucosidase (Beta vulgaris) (UniProt O04931)", "sequence (O04931 whole entry)": "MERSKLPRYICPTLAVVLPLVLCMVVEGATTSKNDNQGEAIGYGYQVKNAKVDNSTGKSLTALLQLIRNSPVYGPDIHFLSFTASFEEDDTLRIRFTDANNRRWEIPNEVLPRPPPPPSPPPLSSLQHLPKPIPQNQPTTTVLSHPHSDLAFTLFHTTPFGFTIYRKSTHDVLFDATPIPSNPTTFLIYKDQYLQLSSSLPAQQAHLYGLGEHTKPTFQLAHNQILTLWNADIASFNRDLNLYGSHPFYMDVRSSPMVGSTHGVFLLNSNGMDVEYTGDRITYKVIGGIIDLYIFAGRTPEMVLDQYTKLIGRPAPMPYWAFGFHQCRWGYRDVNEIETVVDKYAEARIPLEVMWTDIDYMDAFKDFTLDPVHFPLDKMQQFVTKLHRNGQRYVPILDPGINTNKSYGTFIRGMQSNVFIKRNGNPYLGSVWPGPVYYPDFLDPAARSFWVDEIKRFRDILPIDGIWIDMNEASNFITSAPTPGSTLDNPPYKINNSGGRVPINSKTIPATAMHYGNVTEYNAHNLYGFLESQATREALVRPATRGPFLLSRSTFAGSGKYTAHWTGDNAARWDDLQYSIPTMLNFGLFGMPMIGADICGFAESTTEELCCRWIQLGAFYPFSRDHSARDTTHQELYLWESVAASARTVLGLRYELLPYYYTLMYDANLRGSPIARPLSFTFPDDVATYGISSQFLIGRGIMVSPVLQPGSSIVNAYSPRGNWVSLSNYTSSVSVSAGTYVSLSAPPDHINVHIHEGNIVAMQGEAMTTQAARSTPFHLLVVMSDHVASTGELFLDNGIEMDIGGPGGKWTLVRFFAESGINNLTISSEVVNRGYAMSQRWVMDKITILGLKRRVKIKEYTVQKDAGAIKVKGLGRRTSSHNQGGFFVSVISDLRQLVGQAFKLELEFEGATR", "test": "Inhibition of Sugar beet glucosidase (of family 31 alpha-glucosidase) at 1 umol/mL"}, "[3]": {"molecular_target": "T2, Alpha-glucosidase (Aspergillus niger) (UniProt P56526)", "T2 sequence (whole entry)": "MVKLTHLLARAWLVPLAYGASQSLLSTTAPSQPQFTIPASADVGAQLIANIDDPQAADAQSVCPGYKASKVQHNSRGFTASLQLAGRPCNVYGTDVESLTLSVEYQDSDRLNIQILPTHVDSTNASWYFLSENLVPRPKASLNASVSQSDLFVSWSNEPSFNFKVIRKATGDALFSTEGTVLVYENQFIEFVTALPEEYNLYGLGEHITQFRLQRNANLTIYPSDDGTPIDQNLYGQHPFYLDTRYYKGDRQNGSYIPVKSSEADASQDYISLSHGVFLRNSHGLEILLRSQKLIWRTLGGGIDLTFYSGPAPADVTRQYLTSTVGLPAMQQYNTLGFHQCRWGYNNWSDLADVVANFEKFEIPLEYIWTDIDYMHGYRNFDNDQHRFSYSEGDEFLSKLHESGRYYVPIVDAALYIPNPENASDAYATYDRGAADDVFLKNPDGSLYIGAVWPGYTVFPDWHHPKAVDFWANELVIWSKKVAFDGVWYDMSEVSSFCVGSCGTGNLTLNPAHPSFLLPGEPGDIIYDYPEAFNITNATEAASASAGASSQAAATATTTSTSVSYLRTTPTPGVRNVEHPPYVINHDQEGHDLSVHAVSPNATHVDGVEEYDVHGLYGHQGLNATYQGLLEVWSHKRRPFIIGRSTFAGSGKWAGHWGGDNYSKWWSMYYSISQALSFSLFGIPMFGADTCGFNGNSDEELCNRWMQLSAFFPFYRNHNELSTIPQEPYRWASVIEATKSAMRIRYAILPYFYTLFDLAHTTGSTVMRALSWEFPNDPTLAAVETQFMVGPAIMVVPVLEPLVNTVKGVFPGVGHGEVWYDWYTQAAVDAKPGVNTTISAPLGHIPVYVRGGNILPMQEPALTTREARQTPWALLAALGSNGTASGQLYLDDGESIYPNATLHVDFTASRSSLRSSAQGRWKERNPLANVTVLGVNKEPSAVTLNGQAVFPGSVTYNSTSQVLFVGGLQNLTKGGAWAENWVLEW", "test": "Inhibition of Aspergillus niger glucosidase (of family 31 alpha-glucosidase) at 1 umol/mL"}, "[4]": {"molecular_target": "T3, Cytosolic beta-glucosidase (Homo sapiens) (UniProt Q9H227)", "T3 sequence (whole entry)": "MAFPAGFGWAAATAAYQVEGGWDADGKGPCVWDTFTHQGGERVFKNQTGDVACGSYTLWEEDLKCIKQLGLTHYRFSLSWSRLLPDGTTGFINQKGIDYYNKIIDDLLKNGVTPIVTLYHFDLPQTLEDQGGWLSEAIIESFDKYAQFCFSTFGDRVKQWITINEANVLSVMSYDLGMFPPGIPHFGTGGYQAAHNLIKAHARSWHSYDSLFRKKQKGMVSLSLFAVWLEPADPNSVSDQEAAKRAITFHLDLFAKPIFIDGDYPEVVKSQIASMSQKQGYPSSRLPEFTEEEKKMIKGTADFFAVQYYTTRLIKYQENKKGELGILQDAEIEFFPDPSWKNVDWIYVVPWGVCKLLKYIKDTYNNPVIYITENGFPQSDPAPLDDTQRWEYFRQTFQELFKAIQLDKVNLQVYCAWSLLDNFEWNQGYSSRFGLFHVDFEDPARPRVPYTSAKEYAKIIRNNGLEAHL", "test": "Inhibition of beta-Glucosidase at 2 umol/mL"}, "[5]": {"molecular_target": "T1, Alpha-glucosidase (Apis mellifera)", "test": "Inhibition of family 13 alpha-glucosidase isoform I from honey bee", "conditions": "concentration not given here"}, "[6]": {"test": "Inhibitory concentration for Saccharomyces cerevisiae glucosidase (of family 13 alpha-glucosidase) at 1 umol/mL"}, "[7]": {"test": "Competitive Inhibition constant for Saccharomyces cerevisiae glucosidase"}}, "data": [{"compound": "CC(=O)NCC1OC(CO)C(O)C(O)C1O", "note": "(stereo not given)", "values": [{"measurement": "inhibition", "setting": "[1]", "value": "< 1", "unit": "%"}, {"measurement": "inhibition", "setting": "[2]; Beta vulgaris subsp. vulgaris", "value": 8.8, "unit": "%"}, {"measurement": "inhibition", "setting": "[3]", "value": 23.3, "unit": "%"}, {"measurement": "inhibition", "setting": "[4]", "value": "< 1", "unit": "%"}]}, {"compound": "O=C(CCO)NCC1OC(CO)C(O)C(O)C1O", "note": "(stereo not given)", "values": [{"measurement": "inhibition", "setting": "[1]", "value": 2.7, "unit": "%"}, {"measurement": "inhibition", "setting": "[2]; Beta vulgaris subsp. vulgaris", "value": 1.7, "unit": "%"}, {"measurement": "inhibition", "setting": "[3]", "value": 2.6, "unit": "%"}, {"measurement": "inhibition", "setting": "[4]", "value": "< 1", "unit": "%"}]}, {"compound": "O=C(CO)NCC1OC(CO)C(O)C(O)C1O", "note": "(stereo not given)", "values": [{"measurement": "inhibition", "setting": "[1]", "value": 4.4, "unit": "%"}, {"measurement": "inhibition", "setting": "[2]; Beta vulgaris subsp. vulgaris", "value": 6.9, "unit": "%"}, {"measurement": "inhibition", "setting": "[3]", "value": 6.6, "unit": "%"}, {"measurement": "inhibition", "setting": "[4]", "value": "< 1", "unit": "%"}]}, {"compound": "O=C(CCCO)NCC1OC(CO)C(O)C(O)C1O", "note": "(stereo not given)", "values": [{"measurement": "inhibition", "setting": "[5]", "value": "< 1", "unit": "%"}, {"measurement": "inhibition", "setting": "[1]", "value": 3.6, "unit": "%"}, {"measurement": "inhibition", "setting": "[2]; Beta vulgaris subsp. vulgaris", "value": 3.6, "unit": "%"}, {"measurement": "inhibition", "setting": "[3]", "value": "< 1", "unit": "%"}, {"measurement": "inhibition", "setting": "[4]", "value": "< 1", "unit": "%"}]}, {"compound": "CC(C)(C)C(=O)NCC1OC(CO)C(O)C(O)C1O", "note": "(stereo not given)", "values": [{"measurement": "inhibition", "setting": "[1]", "value": "< 1", "unit": "%"}, {"measurement": "inhibition", "setting": "[2]; Beta vulgaris subsp. vulgaris", "value": 3.2, "unit": "%"}, {"measurement": "inhibition", "setting": "[3]", "value": 1.2, "unit": "%"}, {"measurement": "inhibition", "setting": "[4]", "value": "< 1", "unit": "%"}]}, {"compound": "O=C(NCC1OC(CO)C(O)C(O)C1O)c1ccccc1", "note": "(stereo not given)", "values": [{"measurement": "IC50", "setting": "[6]", "value": 449, "unit": "µM"}, {"measurement": "inhibition", "setting": "[2]", "value": 9.8, "unit": "%"}, {"measurement": "inhibition", "setting": "[3]", "value": 14, "unit": "%"}, {"measurement": "Ki", "setting": "[7]", "value": 500, "unit": "µM"}]}, {"compound": "O=C(CCCCO)NCC1OC(CO)C(O)C(O)C1O", "note": "(stereo not given)", "values": [{"measurement": "IC50", "setting": "[6]", "value": 55.5, "unit": "µM"}, {"measurement": "inhibition", "setting": "[1]", "value": 21.4, "unit": "%"}, {"measurement": "inhibition", "setting": "[2]; Beta vulgaris subsp. vulgaris", "value": 3.1, "unit": "%"}, {"measurement": "inhibition", "setting": "[3]", "value": 6.8, "unit": "%"}, {"measurement": "inhibition", "setting": "[4]", "value": "< 1", "unit": "%"}, {"measurement": "Ki", "setting": "[7]", "value": 130, "unit": "µM"}]}, {"compound": "O=C(CCCCCO)NCC1OC(CO)C(O)C(O)C1O", "note": "(stereo not given)", "values": [{"measurement": "inhibition", "setting": "[1]", "value": 4.4, "unit": "%"}, {"measurement": "inhibition", "setting": "[2]; Beta vulgaris subsp. vulgaris", "value": 11.9, "unit": "%"}, {"measurement": "inhibition", "setting": "[3]", "value": "< 1", "unit": "%"}, {"measurement": "inhibition", "setting": "[4]", "value": "< 1", "unit": "%"}]}]}
